One data set deals with P-gp. Description: PET brain time-activity curves (SUV), baseline and after tariquidar P-gp block. The class given is in vivo, Sprague–Dawley rats. The source says: Following cannulation of the femoral vein, animals were positioned in pairs in a double LSO/LYSO layer high-resolution research tomograph (CTI/Siemens, Knoxville, TN, USA). First, for attenuation and scatter correction purposes, a transmission scan was acquired using a 740-MBq two-dimensional fan-collimated ^137Cs (662 keV) moving point source. Next, a dynamic emission scan was acquired immediately following administration of 17.1 ± 2.1 MBq (mean ± SD) ^11C]phenytoin to each rat. Two animals had one single ^11C]phenytoin scan; two animals had two consecutive scans, and two had three consecutive scans. Finally, all animals underwent an ^18F]FDG scan before being euthanized. Tariquidar, 15 mg·kg^−1, was used to completely block P-gp, while probenecid, 150 mg·kg^−1, was used to inhibit multi-resistant protein (MRP) efflux proteins. Tariquidar and probenecid were administered i.v. 20 min prior to the scan start as a 10-min infusion. All animals, except one, were scanned without any treatment prior to the first ^11C]phenytoin scan. Of the animals that had two scans, one underwent two post-tariquidar scans (animal 4, Table 1). […] Animals that underwent three consecutive scans had one baseline, one post probenecid and one post-tariquidar scan. During each scan, emission data were acquired for 60 min in list mode and rebinned into the following frame sequence: 7 × 10, 1 × 20, 3 × 30, 2 × 60, 2 × 150, 2 × 300 and 4 × 600 s. Following corrections for decay, dead time, attenuation, random and scatter, scans were reconstructed using a 3D ordinary Poisson ordered subsets expectation maximization algorithm. […] PET image data were analyzed using the freely available software package Amide 0.9 [31]. A magnetic resonance (MR)-based rat brain atlas was used to define five regions of interest (ROIs): the hippocampus, occipital cortex, parietal cortex, caudate putamen and cerebellum. The MR atlas including all ROIs was aligned visually with the summed ^18F]FDG image for each rat. ROIs were then projected onto all frames of all ^11C]phenytoin scans, resulting in ^11C]phenytoin time-activity curves for each scan and rat.
During each [^11C]phenytoin scan, arterial blood samples of 0.1 mL were taken at 20 and 40 s and at 1, 2, 5, 15, 30 and 60 min after [^11C]phenytoin injection. For animals that underwent three scans, the amount of blood withdrawn was reduced by replacing the two samples at 15 and 30 min with a single 20-min sample. Plasma was obtained by centrifugation at 4,000 rpm for 5 min at 4°C, and activity in both plasma and whole blood was measured in an automated 1282 Compugamma CS Universal Gamma Counter (LKB Wallac, Turku, Finland), cross-calibrated against the PET scanner. Standardized uptake values (SUVs) as a function of time were derived by normalizing measured radioactivity concentrations against injected dose and body weight.

Data set [1] in a line: Metabolite analysis in brain tissue after i.v. [11C]phenytoin. It is filed as in vivo, Sprague–Dawley rats. The settings on record: rat brain, N = 2. On the procedure:
Chemicals were obtained from Sigma Aldrich (St. Louis, MO, USA) and were used without further purification. All reactions were carried out under an argon atmosphere unless stated otherwise. [^11C]CO2 was produced using an IBA Cyclone 18/9 cyclotron (IBA, Louvain-La-Neuve, Belgium) by the ^14N(p,α)^11C nuclear reaction performed in a 0.5% O2/N2 gas mixture. Water was purified over a Millipore filter (Millipore, Leiden, The Netherlands). The silica gel used as stationary phase for flash column chromatography was grade 9385, 230 to 400 mesh, 60 Å and obtained from Sigma Aldrich. Chemical shifts (δ) of nuclear magnetic resonance (NMR) spectra were defined relative to the signal of the solvent (7.26 for CDCl3 and 2.50 for DMSO-d6) and measured on a Bruker Avance 250 (Bruker, Billerica, MA, USA), with δ reported in parts per million relative to the solvent. Infrared (IR) spectra were obtained using a Shimadzu FTIR-8400 S (Shimadzu, Kyoto, Japan), and wavelengths (ν) are reported in per centimeter and (s), (m) and (w), indicating strong, moderate and weak signal, respectively. […]
To study the metabolic profile of [^11C]phenytoin in the plasma and brain, five male Sprague–Dawley rats were injected with 150 to 250 MBq [^11C]phenytoin in the tail vein under isoflurane anesthesia. […] This eluate was defined as the nonpolar fraction and was analyzed using HPLC method C. […]

Values joined by “and” are separate entries in the source; they are usually repeats but may differ in a detail not shown here. Equal entries are not always repeated.

Consider `O=C1N[11C](=O)NC1(c1ccccc1)c1ccccc1` [[^11C]phenytoin], for which the figures for the “Brain SUV at 60 min (corrected for metabolites)” value in the data set on P-gp (baseline scans) and in the data set on P-gp (post-tariquidar scans) were “around 0.2” and about 0.3, respectively. Moreover, the “Maximum brain SUV” value is “around 0.8” in the data set with P-gp (baseline scans) and about 0.9 in the data set on P-gp (post-tariquidar scans). For the same compound, the “Time of maximum brain concentration after bolus injection” value with P-gp (rats) was “approximately 5 min”. Further, the “Increase in brain SUV at 10 to 60 min after tariquidar” value with P-gp (tariquidar 15 mg·kg^−1, rat, on average) is reported as “about 50%”. The “Percentage of intact [11C]phenytoin, brain” value was 95 ± 1% in data set [1] (25 min after injection); 83% and 83 ± 5% in data set [1] (45 min after injection).

For the origin of these results see PMC3506555, “[^11C]phenytoin revisited: synthesis by [^11C]CO carbonylation and first evaluation as a P-gp tracer in rats” (EJNMMI Research, 2012).
